{"source": "PubChem BioAssay (NCI)", "test_in_all_cases": "inhibition of tumour cell growth, NCI panel, 48 h", "key": {"MDA-MB-468 breast": {"test_system": "MDA-MB-468 breast"}, "A498 renal": {"test_system": "A498 renal"}, "CAKI-1 renal": {"test_system": "CAKI-1 renal"}, "CCRF-CEM leukemia": {"test_system": "CCRF-CEM leukemia"}, "DU-145 prostate": {"test_system": "DU-145 prostate"}, "HCT-15 colon": {"test_system": "HCT-15 colon"}, "HL-60(TB) leukemia": {"test_system": "HL-60(TB) leukemia"}, "HOP-92 NSCLC": {"test_system": "HOP-92 NSCLC"}, "HS 578T breast": {"test_system": "HS 578T breast"}, "IGROV1 ovarian": {"test_system": "IGROV1 ovarian"}, "MALME-3M melanoma": {"test_system": "MALME-3M melanoma"}, "MDA-MB-231 breast": {"test_system": "MDA-MB-231 breast"}, "MDA-MB-435": {"test_system": "MDA-MB-435"}, "MOLT-4 leukemia": {"test_system": "MOLT-4 leukemia"}, "NCI-H226 lung": {"test_system": "NCI-H226 lung"}, "NCI-H460 lung": {"test_system": "NCI-H460 lung"}, "NCI/ADR-RES ovarian": {"test_system": "NCI/ADR-RES ovarian"}, "OVCAR-3 ovarian": {"test_system": "OVCAR-3 ovarian"}, "RXF 393 renal": {"test_system": "RXF 393 renal"}, "SF-295 CNS": {"test_system": "SF-295 CNS"}, "SK-MEL-2 melanoma": {"test_system": "SK-MEL-2 melanoma"}, "SK-MEL-5 melanoma": {"test_system": "SK-MEL-5 melanoma"}, "SN12C renal": {"test_system": "SN12C renal"}, "SNB-75 CNS": {"test_system": "SNB-75 CNS"}, "SR leukemia": {"test_system": "SR leukemia"}, "SW-620 colon": {"test_system": "SW-620 colon"}, "UACC-257 melanoma": {"test_system": "UACC-257 melanoma"}, "UACC-62 melanoma": {"test_system": "UACC-62 melanoma"}, "UO-31 renal": {"test_system": "UO-31 renal"}}, "note": "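Where inhibition never reached the appropriate level, the endpoint shown equals the highest concentration tested. Otherwise, values were interpolated linearly from a five-concentration, 48-hour dose response in 96-well plates. Here, GI50 denotes the concentration required for 50% inhibition of growth. At the TGI there is no net growth.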 Where a SMILES comes first, the peptide text is derived from it. [ ]: non-standard residue; d: D form. Phe(ol) = N[C@H](CO)Cc1ccccc1; dIva = CC[C@@](C)(N)C(=O)O; Aib = CC(C)(N)C(=O)O", "data": [{"compound": "CC[C@@](C)(NC(=O)C(C)(C)NC(=O)[C@@H](NC(=O)[C@@H]1CCCN1C(=O)C(C)(C)NC(=O)[C@H](CC(C)C)NC(=O)CNC(=O)C(C)(C)NC(=O)[C@@H](NC(=O)C(C)(C)NC(=O)[C@H](CCC(N)=O)NC(=O)[C@H](C)NC(=O)C(C)(C)NC(=O)[C@H](C)NC(=O)C(C)(C)NC(=O)[C@@H]1CCCN1C(=O)C(C)(C)NC(C)=O)C(C)C)C(C)C)C(=O)N[C@@H](CCC(N)=O)C(=O)N[C@@H](CCC(N)=O)C(=O)N[C@H](CO)Cc1ccccc1", "note": "(Ac-[Aib]P[Aib]A[Aib]AQ[Aib]V[Aib]GL[Aib]PV[Aib][dIva]QQ[Phe(ol)])", "values": [{"measurement": "GI50", "setting": "MDA-MB-468 breast", "value": 0.867, "unit": "µM"}, {"measurement": "TGI", "setting": "MDA-MB-468 breast", "value": 3.67, "unit": "µM"}]}, {"compound": "O=C(Nc1nc(-c2ccc(Cl)cc2)cs1)c1cc(O)c(O)c(O)c1", "values": [{"measurement": "GI50", "setting": "MDA-MB-468 breast", "value": 213, "unit": "µM"}, {"measurement": "TGI", "setting": "MDA-MB-468 breast", "value": 2290, "unit": "µM"}]}, {"compound": "COc1cc(C(=O)/C=C/c2cc(-c3ccc4c(c3)OCO4)n[nH]2)cc(OC)c1OC", "values": [{"measurement": "GI50", "setting": "MDA-MB-468 breast", "value": 1.4, "unit": "µM"}, {"measurement": "TGI", "setting": "MDA-MB-468 breast", "value": 3.5, "unit": "µM"}]}, {"compound": "Cc1ccc(N)cc1[As]=[As]c1cc(N)ccc1C", "note": "(stereo unspecified)", "values": [{"measurement": "GI50", "setting": "MDA-MB-468 breast", "value": 0.243, "unit": "µM"}, {"measurement": "TGI", "setting": "MDA-MB-468 breast", "value": 0.944, "unit": "µM"}]}, {"compound": "C=C1c2nc3ccccc3n2C=C(c2cccc(Cl)c2)N1Cc1ccc(OC)cc1", "values": [{"measurement": "GI50", "setting": "MDA-MB-468 breast", "value": 0.784, "unit": "µM"}, {"measurement": "TGI", "setting": "MDA-MB-468 breast", "value": 17.2, "unit": "µM"}]}, {"compound": "Oc1ccc2c(=S)cc(-c3ccc(Br)cc3)oc2c1O", "values": [{"measurement": "GI50", "setting": "MDA-MB-468 breast", "value": 2.08, "unit": "µM"}, {"measurement": "TGI", "setting": "MDA-MB-468 breast", "value": 6.5, "unit": "µM"}]}, {"compound": "Cc1ccc(C(C)C)cc1Oc1cccc(-c2c(-c3ccc(C(F)(F)F)cc3)ncn2C2CCNCC2)n1", "values": [{"measurement": "GI50", "setting": "A498 renal", "value": 1.57, "unit": "µM"}, {"measurement": "TGI", "setting": "A498 renal", "value": 3.05, "unit": "µM"}, {"measurement": "GI50", "setting": "CAKI-1 renal", "value": 1.42, "unit": "µM"}, {"measurement": "TGI", "setting": "CAKI-1 renal", "value": 2.85, "unit": "µM"}, {"measurement": "GI50", "setting": "CCRF-CEM leukemia", "value": 2.26, "unit": "µM"}, {"measurement": "TGI", "setting": "CCRF-CEM leukemia", "value": 27.9, "unit": "µM"}, {"measurement": "GI50", "setting": "DU-145 prostate", "value": 1.68, "unit": "µM"}, {"measurement": "TGI", "setting": "DU-145 prostate", "value": 3.1, "unit": "µM"}, {"measurement": "GI50", "setting": "HCT-15 colon", "value": 1.36, "unit": "µM"}, {"measurement": "TGI", "setting": "HCT-15 colon", "value": 2.69, "unit": "µM"}, {"measurement": "GI50", "setting": "HL-60(TB) leukemia", "value": 1.05, "unit": "µM"}, {"measurement": "TGI", "setting": "HL-60(TB) leukemia", "value": 3.36, "unit": "µM"}, {"measurement": "GI50", "setting": "HOP-92 NSCLC", "value": 1.35, "unit": "µM"}, {"measurement": "TGI", "setting": "HOP-92 NSCLC", "value": 2.84, "unit": "µM"}, {"measurement": "GI50", "setting": "HS 578T breast", "value": 1.68, "unit": "µM"}, {"measurement": "TGI", "setting": "HS 578T breast", "value": 3.67, "unit": "µM"}, {"measurement": "GI50", "setting": "IGROV1 ovarian", "value": 1.34, "unit": "µM"}, {"measurement": "TGI", "setting": "IGROV1 ovarian", "value": 2.67, "unit": "µM"}, {"measurement": "GI50", "setting": "MALME-3M melanoma", "value": 1.43, "unit": "µM"}, {"measurement": "TGI", "setting": "MALME-3M melanoma", "value": 2.77, "unit": "µM"}, {"measurement": "GI50", "setting": "MDA-MB-231 breast", "value": 1.48, "unit": "µM"}, {"measurement": "TGI", "setting": "MDA-MB-231 breast", "value": 2.81, "unit": "µM"}, {"measurement": "GI50", "setting": "MDA-MB-435", "value": 1.7, "unit": "µM"}, {"measurement": "TGI", "setting": "MDA-MB-435", "value": 3.19, "unit": "µM"}, {"measurement": "GI50", "setting": "MDA-MB-468 breast", "value": 1.33, "unit": "µM"}, {"measurement": "TGI", "setting": "MDA-MB-468 breast", "value": 2.73, "unit": "µM"}, {"measurement": "GI50", "setting": "MOLT-4 leukemia", "value": 1.69, "unit": "µM"}, {"measurement": "TGI", "setting": "MOLT-4 leukemia", "value": 4.44, "unit": "µM"}, {"measurement": "GI50", "setting": "NCI-H226 lung", "value": 1.48, "unit": "µM"}, {"measurement": "TGI", "setting": "NCI-H226 lung", "value": 3.01, "unit": "µM"}, {"measurement": "GI50", "setting": "NCI-H460 lung", "value": 1.63, "unit": "µM"}, {"measurement": "TGI", "setting": "NCI-H460 lung", "value": 3.08, "unit": "µM"}, {"measurement": "GI50", "setting": "NCI/ADR-RES ovarian", "value": 1.6, "unit": "µM"}, {"measurement": "TGI", "setting": "NCI/ADR-RES ovarian", "value": 3.19, "unit": "µM"}, {"measurement": "GI50", "setting": "OVCAR-3 ovarian", "value": 1.8, "unit": "µM"}, {"measurement": "TGI", "setting": "OVCAR-3 ovarian", "value": 3.28, "unit": "µM"}, {"measurement": "GI50", "setting": "RXF 393 renal", "value": 1.34, "unit": "µM"}, {"measurement": "TGI", "setting": "RXF 393 renal", "value": 2.72, "unit": "µM"}, {"measurement": "GI50", "setting": "SF-295 CNS", "value": 1.53, "unit": "µM"}, {"measurement": "TGI", "setting": "SF-295 CNS", "value": 2.97, "unit": "µM"}, {"measurement": "GI50", "setting": "SK-MEL-2 melanoma", "value": 1.82, "unit": "µM"}, {"measurement": "TGI", "setting": "SK-MEL-2 melanoma", "value": 3.47, "unit": "µM"}, {"measurement": "GI50", "setting": "SK-MEL-5 melanoma", "value": 1.61, "unit": "µM"}, {"measurement": "TGI", "setting": "SK-MEL-5 melanoma", "value": 2.99, "unit": "µM"}, {"measurement": "GI50", "setting": "SN12C renal", "value": 1.35, "unit": "µM"}, {"measurement": "TGI", "setting": "SN12C renal", "value": 2.66, "unit": "µM"}, {"measurement": "GI50", "setting": "SNB-75 CNS", "value": 1.3, "unit": "µM"}, {"measurement": "TGI", "setting": "SNB-75 CNS", "value": 2.68, "unit": "µM"}, {"measurement": "GI50", "setting": "SR leukemia", "value": 1.61, "unit": "µM"}, {"measurement": "TGI", "setting": "SR leukemia", "value": 4.13, "unit": "µM"}, {"measurement": "GI50", "setting": "SW-620 colon", "value": 1.47, "unit": "µM"}, {"measurement": "TGI", "setting": "SW-620 colon", "value": 2.91, "unit": "µM"}, {"measurement": "GI50", "setting": "UACC-257 melanoma", "value": 1.75, "unit": "µM"}, {"measurement": "TGI", "setting": "UACC-257 melanoma", "value": 3.4, "unit": "µM"}, {"measurement": "GI50", "setting": "UACC-62 melanoma", "value": 1.44, "unit": "µM"}, {"measurement": "TGI", "setting": "UACC-62 melanoma", "value": 2.76, "unit": "µM"}, {"measurement": "GI50", "setting": "UO-31 renal", "value": 1.33, "unit": "µM"}, {"measurement": "TGI", "setting": "UO-31 renal", "value": 2.63, "unit": "µM"}]}, {"compound": "COc1cc(-c2nn(-c3ccc(NC(=O)Nc4cc(C(F)(F)F)cc(C(F)(F)F)c4)cc3)cc2-c2ccncc2)ccc1Cl", "values": [{"measurement": "GI50", "setting": "MDA-MB-468 breast", "value": 1.45, "unit": "µM"}, {"measurement": "TGI", "setting": "MDA-MB-468 breast", "value": 3.35, "unit": "µM"}]}, {"compound": "O=C(Oc1ccccc1)N(c1ccccc1)c1ccccc1", "values": [{"measurement": "GI50", "setting": "MDA-MB-468 breast", "value": 24, "unit": "µM"}, {"measurement": "TGI", "setting": "MDA-MB-468 breast", "value": 87.7, "unit": "µM"}]}, {"compound": "CC12OC(CC(O)C1O)n1c3ccccc3c3c4c(c5c6ccccc6n2c5c31)C(=O)N(CCN1CCOCC1)C4=O", "note": "(stereo unspecified)", "values": [{"measurement": "GI50", "setting": "MDA-MB-468 breast", "value": 1.17, "unit": "µM"}, {"measurement": "TGI", "setting": "MDA-MB-468 breast", "value": 3.19, "unit": "µM"}]}]}
